Key:
[1] = tested on: human mesenchymal stem cells (hMSC); experiment: Cell differentiation ability by calcein staining; type: cell-based; set-up: dose or concentration left out as unconfirmed; conditions: hard tissue-forming medium with calcein, 14 days, compared with PBS; FIG. 4A g-i
Description: In order to confirm cell differentiation ability of the cell permeable peptide-bone differentiation inducing sequence conjugate, human mesenchymal stem cells (hMSC) were seeded in each well of a 4-well chamber slide at 5×10^3/well, and then incubated in a general medium for 20 hours (overnight) for cell stabilization. The cells were treated with the cell permeable peptide-bone differentiation inducing sequence conjugate synthesized from Example 1 and the bone differentiation inducing sequence of Comparative Example 2 of […] for each, and then incubated in a hard tissue forming medium containing calcein (calcium staining, green) for 14 days. The composition of the hard tissue-forming medium consisted of an MSCBM medium containing 15% FBS (fetal bovine serum), […] of L-ascorbic acid, 10^−7 M dexamethasone, 1% antibiotic-antimycotic solution, and 10 mM beta-glycerol phosphate. After completion of the incubation, the medium was removed, and then the cells were washed with phosphate buffer solution (PBS) twice. The cells washed with the phosphate buffer solution were fixed with 10% NBF (neutral buffered formalin), and then the nucleus was stained (Hoechst 33342, blue). […]

[2] = tested on: Smad1/5/8 phosphorylation, RUNX2; experiment: Western blot of signal transduction proteins in cytoplasmic and nuclear fractions; type: cell-based, human; conditions: 10 μm, 1.5 hours, hMSC, compared with PBS; FIG. 4D
Description: In order to confirm cell differentiation ability of the cell permeable peptide-bone differentiation inducing sequence conjugate, using proteins serving an important role in signal transduction pathways in the cytoplasmic fraction and the nuclear fraction, human mesenchymal stem cells (hMSC) were seeded in each well of a 10 cm-dish at 1×10^6/well, and then incubated in a general medium for 20 hours (overnight) for cell stabilization. After 20 hours of the incubation, the cells were treated with the cell permeable peptide-bone differentiation inducing sequence conjugate and the bone differentiation inducing sequence of Comparative Example 2 of 10 μm for each for 1.5 hours.
After that, in order to compare the expression degree of intercellular protein, in each of the cells treated with the cell permeable peptide-bone differentiation inducing sequence conjugate of Example 1 and the bone differentiation inducing sequence of Comparative Example 2, cytoplasm and nucleus were separated using NE-PER nuclear and cytoplasmic extraction reagents according to the manufacturer's instructions (Pierce, USA). The protein in the hMSC lysis solution containing the separated cytoplasm and nucleus was determined by Bradford's assay, and then subjected to electrophoresis using 10% polyacrylamide gel at 120 volts for 4 hours. […]

[3] = tested on: human mesenchymal stem cells (hMSC); experiment: Cytotoxicity by MTT assay; type: cell-based; set-up: dose or concentration left out as unconfirmed; conditions: 24, 48, and 72 hours, FIG. 5
Description: In order to confirm whether or not cell proliferation is affected by potential toxicity when the cell permeable peptide-bone differentiation inducing sequence conjugate and control domains are cultured with hMSC, a 3-[4,5-dimethylthiazo-2-yl]-2,5-diphenyl tetrazolium bromide thiazolyl blue (MTT) assay method was used.
The MTT assay method is a method for measuring cytotoxicity by measuring absorbance of formazan produced as mitochondrial dehydrogenases in alive and metabolically active cells reduces MTT to indicate the absorbance as a percentage based on the control group. In this case, the measured absorbance reflects a concentration of the alive and metabolically active cells. 2,3,5-triphenyl tetrazolium chloride (TTC) is reduced to formazan in live cells. The formazan is insoluble purple color, and a respiration rate may be measured by a degree of color. The absorbance of formazan is maximal at 540 nm, and the absorbance measured at this wavelength reflects the concentration of the alive and metabolically active cells. Since a linear relationship between the absorbance and the concentration of the cells is not established when a concentration of cells in well to be measured is excessively high or low, a process of determining an optimal concentration of the cells was performed. […]

With “NH2-GAPPPADSAP-SSRKKNPNCRRH-C-COONH2 (H-GAPPPADSAPSSRKKNPNCRRHC-NH2; cysteine pairing not given here) [Example 1]” as the substance, how does the “calcein staining degree of phosphorylated calcium” value [1] read?
The value was “relatively strong staining degree of phosphorylated calcium”.

What about the “RUNX2 in the nucleus (western blot)” value [2] of the same substance?
The value was “noticeably increased RUNX2”.

What about the “phosphorylation of Smad1/5/8 (western blot)” value [2] of the same substance?
Its value is “exhibited Smad 1/5/8 phosphorylation”.

What about the “cytotoxicity (MTT, cell proliferation ability compared with PBS)” value [3] of the same substance?
Its value is “did not exhibit cytotoxicity”.

— patent US9023987B2, “Cell-permeable peptide” (Seoul National University R&DB Foundation, priority 2010, dated 2015)
